The text below walks through data of patent US20260151403A1, “NEK7 DEGRADERS AND METHODS OF USE THEREOF” (Captor Therapeutics S.A., priority 2022, published 2026).

The target of experiment [1] is T1, [NEK7]-[compound of formula (I)]-[CRBN/DDB1] complex (Homo sapiens, UniProt Q8TDX7+Q96SW2). In words: AlphaLISA dose response ternary complex formation assay. The experiment is classed as binding. Conditions: 1 μM compound, normalized to maximum signal of Compound 2 (positive control) and DMSO background; for activation at 1 µM: read-out: Normalized AlphaLISA ternary complex average signal at 1 μM molecule. In a few lines:
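Biotinylated NEK7 (200 nM) on streptavidin donor beads and 6×His-CRBN/Strep-DDB1 (200 nM) on anti-His acceptor beads, each at 40 μg/ml and preincubated 30 min, then mixed and added to compound in HBS pH 7.4, 0.1% Tween-20, 1 mM DTT, 2% DMSO. After 30 min at 25 °C, AlphaLISA signal was read (ex 680/em 615 nm) and normalised to DMSO background and maximal Compound 2 signal.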
A general note: In Alpha technology, singlet oxygen from a donor bead excites a nearby acceptor bead.

The target in experiment [2] is NEK7-HiBiT protein (Homo sapiens, UniProt Q8TDX7). In words: NEK7-HiBiT degradation assay (Nano-Glo HiBiT Lytic Assay) in HEK293 NEK7-HiBiT cells. The experiment is classed as cell-based. To be noted: 24 h, conc. 0.1, 1 and 10 μM tested, concentration of the table values not stated, mean of 3 technical replicates. Put shortly:
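HEK293 cells with CRISPR knock-in N-terminal HiBiT-tagged NEK7 exposed to compound for 24 h at 37 °C, 5% CO2. Residual NEK7-HiBiT was read as Nano-Glo HiBiT lytic luminescence and expressed as % of DMSO control across triplicates; compounds run at 0.1, 1 and 10 μM.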

For experiment [3], the target named is T1, [NEK7]-[compound of formula (I)]-[CRBN/DDB1] complex. In words: HTRF ternary complex assay. The experiment is classed as binding. To be noted: dose-response, 180 min at 25° C.; for EC50: read-out: HTRF ternary complex Average pEC50 by molecule (converted). Put shortly:
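Mix of 24 nM NEK7, 52.8 nM 6×His-CRBN/Strep-DDB1, 3 nM streptavidin-Eu cryptate and 6.67 nM anti-6×His-d2 in PPI Europium detection buffer with 1 mM DTT, dose-response compound, 0.5% DMSO, 180 min at 25° C. TR-FRET (665/620) read, normalized to DMSO background, Hill-slope fit gave EC50/pEC50.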
Background: Time-resolved FRET reads energy transfer from a long-lived donor to a nearby acceptor.

A value given as a limit tells only on which side of the number the result lay.

T1 sequence (Q8TDX7 whole entry): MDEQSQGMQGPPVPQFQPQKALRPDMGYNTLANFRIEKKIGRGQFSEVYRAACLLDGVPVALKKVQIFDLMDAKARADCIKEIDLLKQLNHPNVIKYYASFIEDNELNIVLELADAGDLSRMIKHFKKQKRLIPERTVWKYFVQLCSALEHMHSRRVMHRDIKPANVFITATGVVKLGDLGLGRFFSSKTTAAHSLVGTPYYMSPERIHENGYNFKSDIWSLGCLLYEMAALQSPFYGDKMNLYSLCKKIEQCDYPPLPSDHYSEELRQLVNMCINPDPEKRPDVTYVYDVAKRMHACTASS
T1 sequence (Q96SW2 whole entry): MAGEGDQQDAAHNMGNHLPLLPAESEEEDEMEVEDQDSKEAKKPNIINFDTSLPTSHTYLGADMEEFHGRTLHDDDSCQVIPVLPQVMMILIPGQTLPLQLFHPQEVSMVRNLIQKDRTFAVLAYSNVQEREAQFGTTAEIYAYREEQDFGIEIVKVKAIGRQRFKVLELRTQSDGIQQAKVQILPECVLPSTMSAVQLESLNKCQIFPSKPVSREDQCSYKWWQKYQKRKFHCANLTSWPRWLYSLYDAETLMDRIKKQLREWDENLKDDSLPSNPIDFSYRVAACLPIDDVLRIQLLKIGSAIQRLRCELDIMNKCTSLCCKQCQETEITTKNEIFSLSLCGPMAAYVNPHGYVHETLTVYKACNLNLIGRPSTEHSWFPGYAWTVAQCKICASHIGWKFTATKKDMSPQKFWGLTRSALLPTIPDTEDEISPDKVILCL
T1 sequence (Q16531 whole entry partner): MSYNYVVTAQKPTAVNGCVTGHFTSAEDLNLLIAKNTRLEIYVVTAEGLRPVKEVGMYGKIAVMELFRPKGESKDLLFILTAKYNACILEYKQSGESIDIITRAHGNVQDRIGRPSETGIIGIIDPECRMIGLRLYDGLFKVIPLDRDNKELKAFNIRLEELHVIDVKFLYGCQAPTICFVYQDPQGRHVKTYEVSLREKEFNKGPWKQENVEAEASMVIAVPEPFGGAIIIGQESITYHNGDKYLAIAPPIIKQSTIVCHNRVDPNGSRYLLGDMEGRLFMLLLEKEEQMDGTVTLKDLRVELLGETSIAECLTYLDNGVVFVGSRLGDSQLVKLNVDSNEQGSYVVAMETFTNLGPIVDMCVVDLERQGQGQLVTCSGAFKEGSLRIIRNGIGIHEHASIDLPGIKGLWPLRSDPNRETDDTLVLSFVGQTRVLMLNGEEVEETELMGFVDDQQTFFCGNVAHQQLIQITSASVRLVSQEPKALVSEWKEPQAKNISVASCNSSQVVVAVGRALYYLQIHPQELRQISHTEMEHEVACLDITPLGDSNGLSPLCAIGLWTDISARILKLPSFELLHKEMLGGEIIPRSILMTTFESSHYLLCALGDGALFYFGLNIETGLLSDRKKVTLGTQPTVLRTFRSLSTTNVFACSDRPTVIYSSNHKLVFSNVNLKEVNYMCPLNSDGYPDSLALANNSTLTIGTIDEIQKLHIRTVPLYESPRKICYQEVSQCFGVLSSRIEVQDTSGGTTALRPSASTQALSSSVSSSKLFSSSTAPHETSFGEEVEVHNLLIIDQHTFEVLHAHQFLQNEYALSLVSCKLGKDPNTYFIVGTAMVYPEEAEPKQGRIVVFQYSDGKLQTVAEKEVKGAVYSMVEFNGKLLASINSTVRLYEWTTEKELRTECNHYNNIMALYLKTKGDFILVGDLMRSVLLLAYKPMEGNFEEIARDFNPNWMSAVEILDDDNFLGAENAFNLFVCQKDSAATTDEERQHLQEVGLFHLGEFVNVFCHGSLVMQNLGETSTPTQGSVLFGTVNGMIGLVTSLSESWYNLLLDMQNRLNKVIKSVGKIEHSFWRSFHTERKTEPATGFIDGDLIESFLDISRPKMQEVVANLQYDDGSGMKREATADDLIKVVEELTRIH
Sequence of NEK7-HiBiT protein (Q8TDX7 whole entry): as the sequence (Q8TDX7 whole entry) above
Sequence of NEK7-HiBiT protein (Q96SW2 whole entry, further chain): as the sequence (Q96SW2 whole entry) above
Sequence of NEK7-HiBiT protein (Q16531 whole entry partner): as the sequence (Q16531 whole entry partner) above

For the molecule `O=C1CCC(N2Cc3cc([C@H]4CCCCN4)ccc3C2=O)C(=O)N1` (stereo partly drawn) [Compound 9, 3-(1-oxo-5-((R)-piperidin-2-yl)isoindolin-2-yl)piperidine-2,6-dione], in experiment [1], the activation at 1 µM was greater than 80%. Moreover, the “Levels of NEK7-HiBiT Protein (as a % of DMSO control)” value (shortened to “Levels … (as a % of DMSO control)”) in experiment [2] was “A (Levels of NEK7-HiBiT Protein ≤ 25%)”. Besides, the EC50 in experiment [3] was 316 to 1000 nM.
For `O=C1CCC(N2Cc3cc(C4CCCCN4)cc(F)c3C2=O)C(=O)N1` (stereo not drawn) [Compound 24, 3-(7-fluoro-1-oxo-5-(piperidin-2-yl)isoindolin-2-yl)piperidine-2,6-dione] the same measures were less than 10%, “D (Levels of NEK7-HiBiT Protein ≥ 75%)” and greater than 3160 nM.
Turning to `O=C1CCC(N2Cc3cc(-c4cc(C(F)(F)F)ccn4)ccc3C2=O)C(=O)N1` (stereo not drawn) [26(2), 3-(1-oxo-5-(4-(trifluoromethyl)pyridin-2-yl)isoindolin-2-yl)piperidine-2,6-dione], the activation at 1 µM in experiment [1] fell in the range of 20 to 80%. The “Levels … (as a % of DMSO control)” value in experiment [2] is “C (Levels of NEK7-HiBiT Protein > 50% and <75%)”. For the same molecule, the EC50 in experiment [3] was 316 to 1000 nM.
Regarding `COc1ccc(-c2ccc3c(c2)CN(C2CCC(=O)NC2=O)C3=O)nc1` (stereo not drawn) [25(2), 3-(5-(5-methoxypyridin-2-yl)-1-oxoisoindolin-2-yl)piperidine-2,6-dione], the activation at 1 µM in experiment [1] was greater than 80%. Besides, in experiment [2], the “Levels … (as a % of DMSO control)” value was “A (Levels of NEK7-HiBiT Protein ≤ 25%)”. The EC50 in experiment [3] was 100 to 316 nM.
For `O=C1CCC(N2Cc3cc(C4CCC(Cc5ccccc5)CN4)ccc3C2=O)C(=O)N1` (single isomer, unassigned) [35 Isomer 1, 3-(5-(5-benzylpiperidin-2-yl)-1-oxoisoindolin-2-yl)piperidine-2,6-dione], in experiment [1], the activation at 1 µM is greater than 80%. For the same molecule, the “Levels … (as a % of DMSO control)” value in experiment [2] is “B (Levels of NEK7-HiBiT Protein > 25% and ≤50%)”. Moreover, the EC50 in experiment [3] is 100 to 316 nM.
As to `O=C1CCC(N2Cc3cc(C4CCC(NC(=O)c5ccccc5)CN4)ccc3C2=O)C(=O)N1` (stereo not drawn) [Compound 56, N-(6-(2-(2,6-dioxopiperidin-3-yl)-1-oxoisoindolin-5-yl)piperidin-3-yl)benzamide], the activation at 1 µM in experiment [1] was greater than 80%. The “Levels … (as a % of DMSO control)” value in experiment [2] is “A (Levels of NEK7-HiBiT Protein ≤ 25%)”. Also, the EC50 in experiment [3] was less than 100 nM.
Consider `O=C1CCC(N2Cc3c(csc3C3CCCCO3)C2=O)C(=O)N1` (stereo not drawn) [Compound 71, 3-(4-oxo-1-(tetrahydro-2H-pyran-2-yl)-4H-thieno[3,4-c]pyrrol-5 (6H)-yl)piperidine-2,6-dione], for which, in experiment [1], the activation at 1 µM is less than 10%. Moreover, the “Levels … (as a % of DMSO control)” value in experiment [2] is given as “D (Levels of NEK7-HiBiT Protein ≥ 75%)”. Besides, in experiment [3], the EC50 is greater than 3160 nM.
In the case of `CCCCC1CCC(c2ccc3c(c2)CN(C2CCC(=O)NC2=O)C3=O)OC1` (single isomer, unassigned) [70 Isomer 1, 3-(5-(5-butyltetrahydro-2H-pyran-2-yl)-1-oxoisoindolin-2-yl)piperidine-2,6-dione], the “Normalized AlphaLISA ternary complex average signal at 1 μM molecule” value in experiment [1] is recorded as “D (Normalized activity < 10%)”. Moreover, the “Levels … (as a % of DMSO control)” value in experiment [2] is given as “D (Levels of NEK7-HiBiT Protein ≥ 75%)”. Besides, the EC50 in experiment [3] was greater than 3160 nM.
Consider “3-(5-((2R,6R)-6-butyltetrahydro-2H-pyran-2-yl)-1-oxoisoindolin-2-yl)piperidine-2,6-dione and 3-(5-((2S,6S)-6-butyltetrahydro-2H-pyran-2-yl)-1-oxoisoindolin-2-yl)piperidine-2,6-dione [69 Isomer 2]”, for which the “Normalized AlphaLISA ternary complex average signal at 1 μM molecule” value in experiment [1] is “B (Normalized activity > 20% and <80%)”. Further, the “Levels … (as a % of DMSO control)” value in experiment [2] is “B (Levels of NEK7-HiBiT Protein > 25% and ≤50%)”. In addition, the “HTRF ternary complex Average pEC50 by molecule” value in experiment [3] is “++++ (7.0 > pEC50 > 6.5)”.
`O=C1CCC(N2Cc3c(csc3-c3ccccn3)C2=O)C(=O)N1` (stereo not drawn) [31(2), 3-(4-oxo-1-(pyridin-2-yl)-4H-thieno[3,4-c]pyrrol-5 (6H)-yl)piperidine-2,6-dione]: the activation at 1 µM in experiment [1] is less than 10%. Moreover, the “Levels … (as a % of DMSO control)” value in experiment [2] is recorded as “D (Levels of NEK7-HiBiT Protein ≥ 75%)”. Moreover, in experiment [3], the EC50 was greater than 3160 nM.
In the case of `O=C1CCC(N2C(=O)c3cccc4c(-c5ccccn5)ccc2c34)C(=O)N1` (stereo not drawn) [28(2), 3-(2-oxo-6-(pyridin-2-yl)benzo[cd]indol-1 (2H)-yl)piperidine-2,6-dione], the activation at 1 µM in experiment [1] was less than 10%. In addition, the “Levels … (as a % of DMSO control)” value in experiment [2] was “C (Levels of NEK7-HiBiT Protein > 50% and <75%)”. Besides, the EC50 in experiment [3] is greater than 3160 nM.
